Measurements published in patent publication US8901314B2, “Substituted pyrazoles as N-type calcium channel blockers” (Janssen Pharmaceutica NV, priority 2012, dated 2014).

Tests used:
[1] = biological target: α1B (Cav2.2), β3 and α2δ subunits of the N-type calcium channel (stable HEK cell line) (Rattus norvegicus, UniProt Q02294); experiment: Calcium-dye indicator assay (FDSS, KCl depolarization); assay type: cell-based; settings: calcium mobilization response to 50 mM KCl; six-point concentration-response
Method: A stable cell line (HEK parent) co-expressing the α1B (Cav2.2), β3 and α2δ subunits of the N-type calcium channel subunits was used. These cells were routinely grown as monolayers in low glucose-containing Dulbecco's Modified Eagle Medium supplemented with 10% FBS, 2 mM L-glutamine, 100 I.U./mL penicillin, 100 μg/mL streptomycin, 400 μg/mL G418 and 200 μg/mL Zeocin (split ratio=1:5). Cells were maintained in 5% CO2 at 37° C. Compounds of Formula (I) were prepared as 10 mM stocks in DMSO from neat compound, if available. Otherwise, the 5 or 10 mM DMSO stock solutions provided in-house were used.
Calcium mobilization responses to KCl depolarization were evaluated by measuring the intensity of calcium-mediated fluorescent signal in the presence of BD Calcium Assay Dye (BD Biosciences, Franklin Lakes, N.J., U.S.A.), utilizing a Functional Drug Screening System (FDSS) by Hamamatsu Corporation (Bridgewater, N.J., U.S.A.).
Twenty-four hours prior to assay, cells were seeded in clear-base poly-D-lysine coated 384-well plates (BD Biosciences) at a density of 5,000 cells per well in culture medium and grown overnight in 5% CO2 at 37° C. On the day of assay growth media were removed and cells were loaded with BD calcium assay dye (BD Biosciences) for 35 min at 37° C. under 5% CO2 and then for 25 min at room temperature. Utilizing the FDSS, cells were exposed to representative compounds of Formula (I) at varying concentrations and intracellular calcium was measured for 5 min prior to the addition of 50 mM KCl for an additional 3 min of measurement.
Maximal fluorescence intensity (FI) achieved upon addition of 50 mM KCl was exported from the FDSS software and further analyzed using GraphPad Prism 4 (Graph Pad Software Inc., CA, U.S.A.). Data were normalized to the maximum average counts from quadruplicate wells for each condition in the presence of 50 mM KCl and to the minimum average counts in the presence of buffer. Theoretical curves were generated using nonlinear regression curve-fitting analysis of either sigmoidal concentration-response or sigmoidal concentration-response (variable slope), and the IC50 values with the best-fit dose curve determined by GraphPad Prism were reported.

[2] = tested on: Cav2.2 (N-type calcium channel; α1B, α2δ and β3 subunits stably expressed in HEK293 cells); experiment: Automated electrophysiology assay (QPatch-HT patch clamp); assay type: cell-based
Method: The Cav2.2 (α1B) subunit (GenBank accession no. AAO53230; supplied by Lipscombe's laboratory at Brown University) was subcloned into pcDNA3.1, whereas the α2δ (M86621) and β3 (M88751) subunits were subcloned into pBudCE4.1 vectors. Stable cell lines expressing all three subunits were generated according to the following procedure: 1) HEK293 cells were transfected with α2δ−1/β3 expression constructs resulting in a stable cell line expressing α2δ−1 and β3 subunits that were selected under 200 μg/mL of Zeocin; 2) a stable cell line expressing α2δ−1/β3 subunits in high quantity as evidenced in its Western blots was isolated from the colony and purified; 3) this cell line was further transfected with Cav2.2 expression constructs, from which cells were subsequently selected under 400 μg/mL G418 and 200 μg/mL Zeocin; 4) these cells were clonally isolated, expanded and screened by Western blot analysis for expressing all three subunits
Cultures of cells stably expressing Cav2.2 were maintained at 37° C. in low glucose-containing Dulbecco's Modified Eagle medium (low glucose) under a 5% CO2 atmosphere. The medium was supplemented with 10% fetal bovine serum, 2 mM L-glutamine, 100 IU/mL penicillin, […] streptomycin, 400 μg/mL G418 and 200 μg/mL Zeocin.
High-throughput automated patch clamp system experiments were carried out using instruments (QPatch-HT) available from Sophion Biosciences, Inc. North Brunswick, N.J. Cells were grown in T175 flasks to 50%-90% confluence were enzymatically treated with Deatchin (Genlantis, San Diego, Calif., U.S.A.), centrifuged, rinsed and resuspended in 293 SFM II media (Life Technologies, Grand Island, N.Y., U.S.A.) supplemented with 25 mM HEPES (Sigma-Aldrich, St. Louis, Mo., U.S.A.) to a concentration of 2−3×10^6 cells/mL. Cells were added to automated cell preparation station on the QPatch-HT (Sophion Biosciences, North Brunswick, N.J., U.S.A.) and following a 10- to 30-min recovery period with gentle stirring, the assay protocol was initiated. During the automated cell preparation, cells were collected, centrifuged and resuspended in an extracellular (EC) solution containing 132 mM NaCl, 1.8 mM CaCl2, 5.4 mM KCl, 0.8 mM MgCl2, 10 mM glucose, and 10 mM HEPES (pH=7.4), adjusted with sucrose to 315 m0sm. The QPlate was primed with an intracellular solution containing 135 CsCl, 10 mM EGTA, 4 MgATP, 0.3 NaGTP, and 20 mM HEPES (pH=7.2), adjusted to approximately 290 m0sm with deionized water and the EC solution. Cells were added to the prepared QPlate wells by robotic pipettes of the QPatch-HT.
For cells determined to be in stable whole-cell patch clamp, the EC solution was replaced with a barium (Ba)/triethylammonium (TEA) solution containing 140 mM TEA-Cl, 10 mM BaCl2, 0.8 mM MgCl2, 10 mM glucose, and 10 mM HEPES (pH=7.4). High (40 mM) BaCl2 concentrations were made with adjustments of TEA-Cl (90 mM) to maintain the osmolarity. From a resting potential of −80 mV, a train of depolarizing pulses (15 pulses at 5 Hz, +20 mV) was delivered to the cell once every 30 sec for eight trains (4 min total), and the resulting currents were measured during a control period (no compound). This protocol was repeated for each subsequent addition of control buffer with or without compound (three periods total, each with four trains). The current generated in the 1st and 15th pulses of the last train of each period in the presence of each drug concentration was normalized to the current generated during the control period at the respective pulses (representing low- and high frequency stimulation, respectively). Data from both the second and third drug application period were analyzed for each cell. A final addition of Ba/TEA solution containing 60-100 uM CdCl2 was made to block all N-type current and “zero” the currents for each cell. A buffer/compound additions were made using a “spitting” feature of the QPatch-HT, which added three repretitions of 5 μL solution at the beginning of each recording period.

[3] = 0.1 μM, high frequency stimulation (15th pulse of 5 Hz train)
[4] = 0.1 μM, low frequency stimulation (1st pulse of train)

| IC50 [1] | Compound | QPatch % Inhibition, High Freq [2, 3] | QPatch % Inhibition, Low Freq [2, 4] | further results |
| --- | --- | --- | --- | --- |
| 1.2 nM | CC(C)Oc1ccccc1-n1nc(C2CC(C)(C)OC(C)(C)C2)cc1-c1ccc(Cl)cc1 [Compound 7, 5-(4-Chlorophenyl)-1-[2-(1-methylethoxy)phenyl]-3-(2,2,6,6-tetramethyltetrahydro-2H-pyran-4-yl)-1H-pyrazole] |  |  |  |
| 2.4 nM | COc1ccccc1-n1nc(C2CC(C)(C)OC(C)(C)C2)cc1-c1ccc(N(C)C)cc1 [Compound 11, 4-[1-(2-Methoxyphenyl)-3-(2,2,6,6-tetramethyltetrahydro-2H-pyran-4-yl)-1H-pyrazol-5-yl]-N,N-dimethylaniline] |  |  |  |
| 5.7 nM | COc1ccccc1-n1nc(C2CC(C)(C)OC(C)(C)C2)cc1-c1ccc2c(ccn2C)c1 [Compound 21, 5-[1-(2-Methoxyphenyl)-3-(2,2,6,6-tetramethyltetrahydro-2H-pyran-4-yl)-1H-pyrazol-5-yl]-1-methyl-1H-indole] |  |  |  |
| 11 nM | COc1ccccc1-n1nc(C2CC(C)(C)OC(C)(C)C2)cc1-c1ccc(OC(C)C)cc1 [Compound 24, 1-(2-Methoxyphenyl)-5-[4-(1-methylethoxy)phenyl]-3-(2,2,6,6-tetramethyltetrahydro-2H-pyran-4-yl)-1H-pyrazole] |  |  |  |
|  | COc1ccccc1-n1nc(C2CC(C)(C)OC(C)(C)C2)cc1-c1ccnc(Cl)c1 [Compound 25, 2-Chloro-4-[1-(2-methoxyphenyl)-3-(2,2,6,6-tetramethyltetrahydro-2H-pyran-4-yl)-1H-pyrazol-5-yl]pyridine] | 29% | 14% |  |
| 1.5 nM | COc1ccccc1-n1nc(C2CC(C)(C)OC(C)(C)C2)cc1-c1ccc2c(c1)OCCO2 [Compound 27, 5-(2,3-Dihydro-1,4-benzodioxin-6-yl)-1-(2-methoxyphenyl)-3-(2,2,6,6-tetramethyltetrahydro-2H-pyran-4-yl)-1H-pyrazole] |  |  |  |
| 58 nM | COc1ccc(-c2cc(C3CC(C)(C)OC(C)(C)C3)nn2-c2ccccc2OC)cc1OC [Compound 29, 5-(3,4-Dimethoxyphenyl)-1-(2-methoxyphenyl)-3-(2,2,6,6-tetramethyltetrahydro-2H-pyran-4-yl)-1H-pyrazole] |  |  |  |
|  | COc1ccccc1-n1nc(C2CC(C)(C)OC(C)(C)C2)cc1-c1ccc([S+](C)[O-])cc1 (stereo not shown) [Compound 47, 5-(4-Methanesulfinyl-phenyl)-1-(2-methoxy-phenyl)-3-(2,2,6,6-tetramethyl-tetrahydro-pyran-4-yl)-1H-pyrazole] | 28% | 25% |  |
|  | CC1(C)CC(c2cc(-c3ccc(Cl)cc3)n(-c3ccccn3)n2)CC(C)(C)O1 [Compound 50, 2-[5-(4-Chloro-phenyl)-3-(2,2,6,6-tetramethyl-tetrahydro-pyran-4-yl)-pyrazol-1-yl]-pyridine] |  |  | QPatch % Inhibition, High Freq ([2]; 0.1 µM): 1%; QPatch % Inhibition, Low Freq ([2]; 0.1 µM): −37% |
|  | CC1(C)CC(c2cc(-c3ccc(Cl)cc3)n(-c3ccncc3)n2)CC(C)(C)O1 [Compound 51, 4-[5-(4-Chlorophenyl)-3-(2,2,6,6-tetramethyltetrahydro-2H-pyran-4-yl)-1H-pyrazol-1-yl]-pyridine] |  |  | QPatch % Inhibition, High Freq ([2]; 0.1 µM): 22%; QPatch % Inhibition, Low Freq ([2]; 0.1 µM): −17% |
|  | COc1ccccc1-n1nc(C2CC(C)(C)SC(C)(C)C2)cc1-c1ccc(Cl)cc1 [Compound 58, 5-(4-Chloro-phenyl)-1-(2-methoxy-phenyl)-3-(2,2,6,6-tetramethyl-tetrahydro-thiopyran-4-yl)-1H-pyrazole] | 26% | 19% |  |
|  | COc1ccccc1-n1nc(C2CC(C)(C)S(=O)(=O)C(C)(C)C2)cc1-c1ccc(Cl)cc1 [Compound 59, 5-(4-Chlorophenyl)-1-(2-methoxyphenyl)-3-(2,2,6,6-tetramethyl-1,1-dioxidotetrahydro-2H-thiopyran-4-yl)-1H-pyrazole] | 54% | 54% |  |

| Compound | IC50 [1] | QPatch % Inhibition, High Freq [2, 3] | QPatch % Inhibition, Low Freq [2, 4] | further results |
| --- | --- | --- | --- | --- |
| COc1ccccc1-n1nc([C@@H]2CCO[C@@H](C(C)C)C2)cc1-c1ccc(Cl)cc1 (relative stereo) [Compound 69, 5-(4-Chlorophenyl)-1-(2-methoxyphenyl)-3-[(trans)-2-(1-methylethyl)tetrahydro-2H-pyran-4-yl]-1H-pyrazole] | 20 nM |  |  |  |
